Experimental data reported in ChEMBL document CHEMBL1136094, “Novel, potent and selective cyclin D1/CDK4 inhibitors: indolo[6,7-a]pyrrolo[3,4-c]carbazoles” (Bioorg Med Chem Lett, 2003).
Several values for one entry are separate records, joined by “and”; a condition that tells them apart may be missing. Equal entries are not always repeated.

Key:
CaM kinase II = CaM kinase II (Homo sapiens, UniProt Q13557+Q13555+Q13554+Q9UQM7); test: Inhibitory activity against Calcium/calmodulin-dependent protein kinase type II; assay type: protein assay
[1] = target: Cyclin-dependent kinase 2/cyclin E (Homo sapiens, UniProt P24941); test: Inhibitory activity against Cyclin E-cyclin-dependent kinase 2 in enzymatic assay by measuring phosphorylation of RbING; assay type: protein-complex assay
[2] = target: T1, Cyclin-dependent kinase 4/cyclin D1 (Homo sapiens, UniProt P11802); test: Inhibitory activity against Cyclin D1-cyclin-dependent kinase 4 in enzymatic assay by measuring phosphorylation of Rb21; assay type: protein-complex assay
[3] = target: T1, Cyclin-dependent kinase 4/cyclin D1; test: Inhibitory activity against Cyclin D1-cyclin-dependent kinase 4 in enzymatic assay by measuring phosphorylation of RbING; assay type: protein-complex assay
HCT-116 [4] = test: In vitro antiproliferative activity against human carcinoma cell line HCT116 (colon); assay type: functional, cell-based
NCI-H460 = test: In vitro antiproliferative activity against human carcinoma cell line H460 (lung); assay type: functional, cell-based
[5] = target: cAMP-dependent protein kinase (PKA) (Homo sapiens, UniProt P22694+P17612+P22612); test: Inhibitory activity against Protein kinase A (Histone); assay type: protein assay
[6] = target: Cyclin-dependent kinase 4 (Homo sapiens) (UniProt P11802); test: Inhibition of Rb phosphorylation at the CDK4 specific Ser780 residue (1 fold increase over control) after 24 hr incubation in HCT116 cells; assay type: functional, cell-based; details: HCT-116, concentration not given here
[7] = target: Cyclin-dependent kinase 4 (Homo sapiens) (UniProt P11802); test: Inhibition of Rb phosphorylation at the CDK4 specific Ser780 residue (3 fold increase over control) after 24 hr incubation in HCT116 cells; assay type: functional, cell-based; details: HCT-116, concentration not given here
HCT-116 [8] = test: GI arrest (1 fold increase over control) in HCT116 cells was determined by flow cytometry after 24 hr incubation; assay type: functional, Homo sapiens

Cyclin-dependent kinase 4 (Homo sapiens), sequence (P11802 whole entry): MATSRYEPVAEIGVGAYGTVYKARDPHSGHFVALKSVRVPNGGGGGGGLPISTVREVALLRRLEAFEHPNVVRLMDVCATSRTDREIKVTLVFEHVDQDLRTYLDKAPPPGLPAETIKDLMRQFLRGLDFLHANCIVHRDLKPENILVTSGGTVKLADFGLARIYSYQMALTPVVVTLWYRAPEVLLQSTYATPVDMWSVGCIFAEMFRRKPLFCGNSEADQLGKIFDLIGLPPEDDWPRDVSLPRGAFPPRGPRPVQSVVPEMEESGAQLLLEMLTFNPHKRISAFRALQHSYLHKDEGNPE
T1 sequence (P11802 whole entry): as above
T1 sequence (P24385 whole entry, further chain): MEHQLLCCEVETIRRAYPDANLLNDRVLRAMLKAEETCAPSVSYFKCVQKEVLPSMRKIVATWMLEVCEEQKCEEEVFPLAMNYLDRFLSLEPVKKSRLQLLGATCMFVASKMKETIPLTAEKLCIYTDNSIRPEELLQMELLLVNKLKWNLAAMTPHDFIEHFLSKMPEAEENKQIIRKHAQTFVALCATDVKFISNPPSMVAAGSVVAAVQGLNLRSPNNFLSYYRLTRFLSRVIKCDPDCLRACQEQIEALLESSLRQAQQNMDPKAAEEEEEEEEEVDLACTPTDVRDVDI

| Compound | IC50 (CaM kinase II) | IC50 [1] | IC50 [2] | IC50 [3] | IC50 (HCT-116 [4]) | IC50 (NCI-H460) | IC50 [5] | inhibition [6] | inhibition [7] | Fold increase (HCT-116 [8]) |
| --- | --- | --- | --- | --- | --- | --- | --- | --- | --- | --- |
| COC(=O)C1CCN(CCc2cccc3c2[nH]c2c4ccc5ccn(C)c5c4c4c(c32)C(=O)NC4=O)CC1 | 81 nM | 972 nM | 13 nM | 47 nM | > 10000 nM | > 10000 nM | > 20000 nM | – | – | – |
| COc1ccc2c3c4c(c5c(ccc6ccn(C)c65)c3n(CCCN3CCOCC3)c2c1)C(=O)NC4=O | > 20000 nM | 716 nM | 21 nM | 69 nM | 1690 nM | 1630 nM | > 20000 nM | – | – | – |
| Cn1ccc2ccc3c4[nH]c5c(CCN6CCC(O)CC6)cccc5c4c4c(c3c21)C(=O)NC4=O.O=C(O)C(F)(F)F | – | – | – | – | – | – | – | – | – | 1.8 |
| O=C1NC(=O)c2c1c1c(ccc3cc[nH]c31)c1c2c2ccccc2n1CCCO | – | 8 nM | 12 nM | 66 nM | 750 nM | 1070 nM | > 20000 nM | – | – | – |
| COc1cccc2c1[nH]c1c3ccc4ccn(C)c4c3c3c(c21)C(=O)NC3=O | – | > 2000 nM | 40 nM | 62 nM | 1000 nM | 2710 nM | > 20000 nM | – | – | – |
| Cc1cc2ccn(C)c2c2c3c(c4c5ccc(C(F)(F)F)cc5[nH]c4c12)C(=O)NC3=O | – | > 2000 nM | 25 nM | 92 nM | 8780 nM | 2420 nM | > 20000 nM | – | – | – |
| Cn1ccc2ccc3c4[nH]c5cccc(CO)c5c4c4c(c3c21)C(=O)NC4=O | – | > 2000 nM | 216 nM | 155 nM | > 10000 nM | > 10000 nM | > 20000 nM | – | – | – |
| COc1ccc2c3c4c(c5c(ccc6ccn(C)c65)c3n(CCCN3CCSCC3)c2c1)C(=O)NC4=O | > 20000 nM | 1260 nM | 47 nM | 190 nM | 2020 nM | 2110 nM | > 20000 nM | – | – | – |
| Cn1ccc2ccc3c4[nH]c5cc(C#N)ccc5c4c4c(c3c21)C(=O)NC4=O | – | 10 nM | 11 nM | 29 nM | > 10000 nM | > 10000 nM | > 20000 nM | – | – | – |
| Cn1ccc2ccc3c4[nH]c5c(CCN6CCNCC6)cccc5c4c4c(c3c21)C(=O)NC4=O | 301 nM | 2030 nM | 15 nM | 49 nM | 1040 nM | 1110 nM | 12900 nM | – | – | – |
| Cn1ccc2ccc3c4[nH]c5c(CCN6CCC[C@H]6CO)cccc5c4c4c(c3c21)C(=O)NC4=O [listing 2 of 2 here] | 90 nM | 685 nM | 23 nM | 39 nM | 420 nM | 210 nM | 4580 nM | – | – | – |
| COc1ccc2c3c4c(c5c(ccc6ccn(C)c65)c3n(CCN3CCCCC3)c2c1)C(=O)NC4=O | > 20000 nM | 928 nM | 33 nM | 135 nM | 3740 nM | 2470 nM | > 20000 nM | – | – | – |
| COc1ccc2c3c4c(c5c(ccc6ccn(C)c65)c3n(CCCN3CCC(O)CC3)c2c1)C(=O)NC4=O | 3130 nM | 2100 nM | 4 nM | 48 nM | 1260 nM | 1130 nM | 2810 nM | – | – | – |
| Cn1ccc2ccc3c4[nH]c5c(CCCNCCO)cccc5c4c4c(c3c21)C(=O)NC4=O | 266 nM | 567 nM | 19 nM | 40 nM | 770 nM | 1100 nM | 8310 nM | – | – | – |
| O=C1NC(=O)c2c1c1c(ccc3cc[nH]c31)c1[nH]c3cc(O)ccc3c21 | – | 6 nM | 17 nM | 37 nM | 170 nM | 230 nM | 949 nM | – | – | – |
| Cn1ccc2ccc3c4[nH]c5cc(F)ccc5c4c4c(c3c21)C(=O)NC4=O | – | 9 nM | 11 nM | 38 nM | > 10000 nM | > 10000 nM | > 20000 nM | – | – | – |
| COc1ccc2c3c4c(c5c(ccc6ccn(C)c65)c3n(CCCN3CCN(C)CC3)c2c1)C(=O)NC4=O | 11600 nM | 1230 nM | 14 nM | 95 nM | 450 nM | 900 nM | 2930 nM | – | – | – |
| COc1ccc2c3c4c(c5c(ccc6ccn(C)c65)c3n(CCN3CCC[C@H]3CO)c2c1)C(=O)NC4=O | 6120 nM | 942 nM | 23 nM | 84 nM | 2690 nM | 3800 nM | > 20000 nM | – | – | – |
| COc1ccc2[nH]c3c4ccc5ccn(C)c5c4c4c(c3c2c1)C(=O)NC4=O | – | > 2000 nM | 680 nM | 519 nM | > 10000 nM | > 10000 nM | > 20000 nM | – | – | – |
| Cn1ccc2ccc3c4[nH]c5cc(OCc6ccccc6)ccc5c4c4c(c3c21)C(=O)NC4=O | – | 328 nM | 25 nM | 123 nM | 6520 nM | > 10000 nM | 3290 nM | – | – | – |
| COc1ccc2c(c1)[nH]c1c2c2c(c3c1c(C)cc1ccn(C)c13)C(=O)NC2=O | – | 57 nM | 7 nM | 42 nM | 1430 nM | 1300 nM | > 20000 nM | – | – | – |
| Cn1ccc2ccc3c4[nH]c5c(CCN6CCSCC6)cccc5c4c4c(c3c21)C(=O)NC4=O | 403 nM | 1800 nM | 24 nM | 82 nM | 3410 nM | 3410 nM | > 20000 nM | – | – | – |
| Cn1ccc2ccc3c4[nH]c5c(CCCN6CCOCC6)cccc5c4c4c(c3c21)C(=O)NC4=O | 516 nM | 1330 nM | 43 nM | 56 nM | 2820 nM | 1680 nM | > 20000 nM | – | – | – |

Second part, led by results:

| IC50 (CaM kinase II) | IC50 [1] | IC50 [2] | IC50 [3] | IC50 (HCT-116 [4]) | IC50 (NCI-H460) | IC50 [5] | inhibition [6] | inhibition [7] | Compound | Fold increase (HCT-116 [8]) |
| --- | --- | --- | --- | --- | --- | --- | --- | --- | --- | --- |
| – | – | – | – | – | – | – | 68% | 69% | Cn1ccc2ccc3c4[nH]c5c(CCN6CCC(O)CC6)cccc5c4c4c(c3c21)C(=O)NC4=O [listing 1 of 2 here] | – |
| – | – | – | – | – | – | – | 65% | 73% | Cn1ccc2ccc3c4[nH]c5c(CCN6CCC[C@H]6CO)cccc5c4c4c(c3c21)C(=O)NC4=O [listing 1 of 2 here] | – |
| – | > 2000 nM | 81 nM | 71 nM | > 2000 nM | > 10000 nM | > 20000 nM | – | – | Cn1ccc2ccc3c4[nH]c5cccc(F)c5c4c4c(c3c21)C(=O)NC4=O | – |
| – | 86 nM | 16 nM | 67 nM | 3490 nM | 2900 nM | > 20000 nM | – | – | Cn1ccc2cc(F)c3c4[nH]c5ccccc5c4c4c(c3c21)C(=O)NC4=O | – |
| – | – | – | – | – | – | – | 57% and 69% | 88% and 80% | Cn1ccc2ccc3c4[nH]c5c(CCN6CCOCC6)cccc5c4c4c(c3c21)C(=O)NC4=O | – |
| – | 101 nM | 24 nM | 47 nM | 4070 nM | 1320 nM | 1620 nM | – | – | COc1ccc2c3c4c(c5c(ccc6ccn(C)c65)c3n(CCO)c2c1)C(=O)NC4=O | – |
| 174 nM | 1500 nM | 24 nM | 34 nM | 950 nM | 370 nM | 14100 nM | – | – | CCN(CC)CCCc1cccc2c1[nH]c1c3ccc4ccn(C)c4c3c3c(c21)C(=O)NC3=O | – |
| – | 125 nM | 36 nM | 67 nM | 2160 nM | 1920 nM | 11400 nM | – | – | COc1ccc2c(c1)[nH]c1c3ccc4cc[nH]c4c3c3c(c21)C(=O)NC3=O | – |
| – | 70 nM | 2 nM | 28 nM | 1980 nM | 2260 nM | > 20000 nM | – | – | Cc1cc2ccn(C)c2c2c3c(c4c5ccccc5[nH]c4c12)C(=O)NC3=O | – |
| 95 nM | 265 nM | 10 nM | 33 nM | 170 nM | 330 nM | 6120 nM | – | – | Cn1ccc2ccc3c4[nH]c5c(CCNCCO)cccc5c4c4c(c3c21)C(=O)NC4=O | – |
| – | 267 nM | 45 nM | 92 nM | 4700 nM | > 10000 nM | 3900 nM | – | – | Cc1cc2ccn(C)c2c2c3c(c4c5ccccc5n(C)c4c12)C(=O)NC3=O | – |
| 382 nM | 1670 nM | – | 52 nM | 1380 nM | 1480 nM | 16600 nM | – | – | CN1CCN(CCCc2cccc3c2[nH]c2c4ccc5ccn(C)c5c4c4c(c32)C(=O)NC4=O)CC1 | – |
| – | 23 nM | 6 nM | 50 nM | 580 nM | 1020 nM | > 20000 nM | – | – | Cc1cc2ccn(C)c2c2c3c(c4c5ccc(F)cc5[nH]c4c12)C(=O)NC3=O | – |
| 46 nM | 978 nM | 8 nM | 45 nM | 200 nM | 140 nM | 2990 nM | – | – | Cn1ccc2ccc3c4[nH]c5c(CCN6CCC(O)CC6)cccc5c4c4c(c3c21)C(=O)NC4=O [listing 2 of 2 here] | – |
| – | 75 nM | < 13 nM | 38 nM | 1080 nM | 720 nM | > 20000 nM | – | – | Cn1ccc2ccc3c4[nH]c5cc(Br)ccc5c4c4c(c3c21)C(=O)NC4=O | – |
| – | 324 nM | 10 nM | 44 nM | 2350 nM | 3200 nM | > 20000 nM | – | – | CCOc1ccc2c(c1)[nH]c1c3ccc4ccn(C)c4c3c3c(c21)C(=O)NC3=O | – |
